From patent publication US9233921B2, “Potent poxvirus inhibitor” (priority 2013, dated 2016) come the findings set out here.

Broadly, the CC50 is the concentration at which the toxic effect on the cells reaches its halfway point. Usually IC50 stands for the midpoint of a concentration-inhibition curve.

Entries after “also recorded” stand apart in the source; their conditions may differ. Where two headings read alike, the source gives them in different places.

One series concerns BSC-1 cells. Nature of the series: Cytotoxicity (CC50).
Another series deals with vaccinia virus. Briefly: microbe, parasite or virus in culture. It counts as cell-based, Vaccinia virus (WR strain).
The next series concerns recombinant VACV (vL1Ri). Format: cell-based, vaccinia virus in BSC-1 cells.
In a further series the test system is mD4-VV hybrid virus. Nature of the series: microbe, parasite or virus in culture. Format: cell-based. Conditions: read-out: IC50 mD4-VV hybrid virus.
Another series is described as follows: Cytotoxicity (CC50). The following applies: African green monkey, BSC-1 cells.
Setting [1] is: Table 5, mean ± SEM of triplicates.
Where [2] appears, read: Orthopoxvirus vaccinia, BSC-1, read-out: IC50 (antiviral).

`Cc1ccc2c(Sc3cc(Cl)cc(Cl)c3)c(CCC(=O)O)[nH]c2c1` [Compound 24d, 3-(3-((3,5-Dichlorophenyl)thio)-6-methyl-1H-indol-2-yl)propanoic acid] gave a CC50 in the series with BSC-1 cells (setting [1]) of 36 ± 14 µM. In the series with vaccinia virus, the “SI (selectivity index = CC50/IC50)” value was 152 and the “fold decrease in potency / loss of activity compared to 24a” value is about 5 fold. Moreover, the IC50 with vaccinia virus (Orthopoxvirus vaccinia) stood at 0.244 µM.
`Nc1ccn(C[C@@H](CO)OCP(=O)(O)O)c(=O)n1` [CDV, cidofovir]: the “EGFP expression (late reporter gene)” value with recombinant VACV (vL1Ri) is given as “equally effective at a higher dose; also recorded: clearly showed suppression of EGFP when pretreated”. Further, in the series with recombinant VACV (vL1Ri) (8 h), the “EGFP expression, compound added after virus adsorption” value is “comparable EGFP expression and CPE to DMSO vehicle; also recorded: EGFP expression comparable to vehicle-treatment”.
In the case of `Cc1ccc2c(Sc3cc(Cl)cc(Cl)c3)c(CCCC(N)=O)[nH]c2c1` [Compound 24c, 4-(3-((3,5-Dichlorophenyl)thio)-6-methyl-1H-indol-2-yl)butanamide], the IC50 in the series on mD4-VV hybrid virus worked out at 0.199 µM; in the series on vaccinia virus (Orthopoxvirus vaccinia) it was 0.208 µM. Half-maximal cytotoxicity in “Cytotoxicity (CC50)” (CC50) was put at 243 ± 2 µM. For the same compound, in the series on vaccinia virus, the “SI (selectivity index = CC50/IC50)” value came to 115. Further, the “fold decrease in potency / loss of activity compared to 24a” value in the series with vaccinia virus is listed as about 5 fold.
Take `Cc1ccc2c(Sc3cc(Cl)cc(Cl)c3)c(CCC(N)=O)[nH]c2c1` [Compound 24a, 3-(3-((3,5-Dichlorophenyl)thio)-6-methyl-1H-indol-2-yl)propanamide]: the IC50 with mD4-VV hybrid virus is 0.03 µM; with vaccinia virus (Orthopoxvirus vaccinia) it was 0.042 µM. The same compound displayed a CC50 with BSC-1 cells (setting [1]) of 16 ± 5 µM. For the same compound, the “cytotoxicity within experimental time frame” value in the series on BSC-1 cells (cells treated 9 h, FIG. 7A) is reported as “minimal cytotoxicity”. For the same compound, the “SI (selectivity index = CC50/IC50)” value in the series on vaccinia virus is on record as 374.
Compound `CCCCCCNC(=O)CCc1[nH]c2cc(C)ccc2c1Sc1cc(Cl)cc(Cl)c1` [Compound 24e, 3-(3-((3,5-Dichlorophenyl)thio)-6-methyl-1H-indol-2-yl)-N-hexylpropanamide] had a CC50 in the series on BSC-1 cells (setting [1]) of 27 ± 4 µM.
In “Cytotoxicity (CC50)”, `CCc1ccc2c(Sc3cc(Cl)cc(Cl)c3)c(C(=O)O)[nH]c2c1` [Compound 25, 3-((3,5-Dichlorophenyl)thio)-6-ethyl-1H-indole-2-carboxylic acid] had a CC50 of 63 µM. The IC50 in the series on vaccinia virus (setting [2]) amounted to 9 µM.
Take `Cc1ccc2c(Sc3cc(Cl)cc(Cl)c3)c(CC(N)=O)[nH]c2c1` [Compound 24b, 2-(3-((3,5-Dichlorophenyl)thio)-6-methyl-1H-indol-2-yl)acetamide]: the concentration for half-maximal inhibition (IC50) with mD4-VV hybrid virus amounted to 0.097 µM; in the series on vaccinia virus (Orthopoxvirus vaccinia) it was 0.046 µM. The compound also displayed a cytotoxic concentration (CC50) with BSC-1 cells (setting [1]) of 26 ± 3 µM. Further, in the series with vaccinia virus, the “SI (selectivity index = CC50/IC50)” value turned out to be 570.
Compound `Cc1ccc2c(Sc3cc(Cl)cc(Cl)c3)c(C(=O)O)[nH]c2c1` [Compound 24, 3-((3,5-Dichlorophenyl)thio)-6-methyl-1H-indole-2-carboxylic acid] registered a CC50 in the series “Cytotoxicity (CC50)” of 75 µM. The “SI (selectivity index = CC50/IC50)” value in the series with vaccinia virus came to 11. Also, the “fold activity improvement over the parent 1” value in the series on vaccinia virus was 2-11 fold. In addition, the figures for the IC50 in the series on vaccinia virus (Orthopoxvirus vaccinia) and in the series on vaccinia virus (setting [2]) were 7 µM and 7 to 37 µM, respectively.
Turning to “6-Methyl-3-(phenylthio)-1H-indole-2-carboxylate [Compound 29]”, the CC50 in the series on BSC-1 cells (read-out: CC50 (cytotoxicity), BSC-1 cells, NA = not active (assays requiring >200 μM)) was 26 µM. For the same compound, the IC50 in the series on vaccinia virus (read-out: IC50 (antiviral)) was 10 µM.
In the case of `Cc1ccc2c(Sc3ccc(C(F)(F)F)cc3)c(C(=O)O)[nH]c2c1` [Compound 18g, 6-Methyl-3-((4-(trifluoromethyl)phenyl)thio)-1H-indole-2-carboxylic acid], in the series “Cytotoxicity (CC50)”, the CC50 came out at 137 µM. Also, the concentration for half-maximal inhibition (IC50) with vaccinia virus (setting [2]) turned out to be 33 µM.
Take `Cc1ccc2c(Sc3cc(Cl)c(Cl)cc3Cl)c(C(=O)O)[nH]c2c1` [Compound 30, 6-Methyl-3-((2,4,5-trichlorophenyl)thio)-1H-indole-2-carboxylic acid]: the CC50 in “Cytotoxicity (CC50)” is 78 µM. Also, the half-inhibitory concentration (IC50) in the series with vaccinia virus (setting [2]) amounted to 25 µM.
